This is an account of results in ChEMBL document CHEMBL4382198, “Discovery of Risdiplam, a Selective Survival of Motor Neuron-2 ( SMN2) Gene Splicing Modifier for the Treatment of Spinal Muscular Atrophy (SMA)” (J Med Chem, 2018).

A short description of data set [1]: Efflux ratio of permeability in human SMA-derived fibroblasts. It counts as ADME, cell-based, Fibroblast. Particulars: not told; call rule not given here.
A short description of data set [2]: Lipophilicity, log D of the compound at pH 7.4. The settings on record: buffer. It is filed as physicochemical.
The nature of data set [3]: Oral bioavailability in cynomolgus monkey at 0.5 mg/kg administered as single dose. The settings on record: in vivo. It is filed as ADME, organism-based, Macaca fascicularis.
The subject of data set [4] is Mus musculus. Description: In-vivo stabilization of SMN2 mRNA in SMA neonatal delta7 mouse model assessed as increase in SMN protein levels in brain at 0.3 mg/kg, ip dosed once daily starting from postnatal day 3 to postnatal day 9 relative to control. It counts as functional.
Data set [5] relates to Mus musculus. Description: In-vivo stabilization of SMN2 mRNA in SMA neonatal delta7 mouse model assessed as increase in SMN protein levels in quadriceps at 0.1 mg/kg, ip dosed once daily starting from postnatal day 3 to postnatal day 9 relative to control. It counts as functional.
Data set [6] deals with Mus musculus. The data set can be described thus: In-vivo stabilization of SMN2 mRNA in SMA neonatal delta7 mouse model assessed as increase in SMN protein levels in quadriceps at 0.3 mg/kg, ip dosed once daily starting from postnatal day 3 to postnatal day 9 relative to control. It counts as functional.
For data set [7], the system named is Mus musculus. Description: In-vivo stabilization SMN2 mRNA in SMA delta7 mouse assessed as increase in mean survival day at 0.1 mg/kg, ip dosed daily starting from postnatal day 3 to postnatal day 23 followed by po dosing 0.3 mg/kg per day via gavage (reference value: 10.5 days). It counts as functional.
Data set [8] deals with Mus musculus. Description: In-vivo stabilization SMN2 mRNA in SMA delta7 ip dosed mouse assessed as increase in number of motor neurons dosed daily starting from postnatal day 3 to postnatal day 14 by immunohistochemistry. It counts as functional, organism-based.
Data set [9] relates to Mus musculus. The data set can be described thus: In-vivo stabilization SMN2 mRNA in SMA delta7 ip dosed mouse assessed as increase in percentage of fully innervated NMJs dosed daily starting from postnatal day 3 to postnatal day 14 by immunohistochemistry. It is filed as functional, organism-based.
The nature of data set [10]: Toxicity in po dosed cynomolgus monkey assessed phospholipidosis administered via gavage up to 39 weeks. It is filed as organism-based, Macaca fascicularis. The settings on record: in vivo, 6552 h.
Data set [11] has as its system Mus musculus. The data set can be described thus: In-vivo stabilization of SMN2 mRNA in SMA neonatal delta7 mouse model assessed as increase in SMN protein levels in brain at 10 mg/kg, ip dosed once daily starting from postnatal day 3 to postnatal day 9 relative to control. It counts as functional.
Data set [12] is described as follows: Stabilization of human MADD mRNA splicing expressed in human SMA-derived fibroblasts at 121 to 605 nM by RT-qPCR analysis. It is filed as ADME. The settings on record: 0.605 µM. Background: Real-time PCR tracks product formation cycle by cycle.
A short description of data set [13]: Stabilization of human STRN3 mRNA splicing expressed in human SMA-derived fibroblasts at 121 to 605 nM by RT-qPCR analysis. It counts as ADME. The settings on record: 0.605 µM.
Data set [14] in a line: Chronic toxicity in retina of po dosed cynomolgus monkey assessed as multifocal peripheral retina degeneration after 39 weeks by OCT analysis. It is filed as organism-based, Macaca fascicularis. Particulars: in vivo, 6552 h.
The nature of data set [15]: Chronic toxicity in retina of po dosed cynomolgus monkey assessed as effect on photo-receptor layers after 39 weeks by histological analysis. Particulars: in vivo, 6552 h. It counts as organism-based, Macaca fascicularis.
The nature of data set [16]: Chronic toxicity in retina of po dosed cynomolgus monkey assessed as RPE hypertrophy 39 weeks by histological analysis. It is filed as organism-based, Macaca fascicularis. Particulars: in vivo, 6552 h.

As for `Cc1cn2nc(-c3cc(=O)n4cc(N5CCNC6(CC6)C5)ccc4n3)cc(C)c2n1`, the efflux ratio in data set [1] turned out to be 2.2. In addition, the logD in data set [2] came out at 2.5. This molecule also had a bioavailability in data set [3] of 43%. The Activity in [4] was 90%; in data set [5], 32%; in [6] it was 64%; in data set [8], “Dose-dependent effect”; in data set [9], “Dose-dependent effect”; in data set [10], “Non-Toxic”. Further, the Activity is 202% in [11]; “Non-Toxic” in data set [12]; “Non-Toxic” in data set [13]; “Toxic” in [14]; “Toxic” in [15]; “Toxic” in [16]. Further, in [7], the MSD is 26 days.

A word on the efflux ratio: it is a quotient of directional permeabilities that is used to spot active efflux. For orientation: logD means lipophilicity at a set pH, counting ionised and neutral species. Usually bioavailability stands for the share of a dose that reaches the circulation, judged against a reference dose that is usually intravenous.
